Columns and labels:
TLR7 = TLR7 (Homo sapiens (Human), UniProt Q9NYK1); assay: TLR7 human peripheral blood mononuclear cell (PBMC) cell-based assay (GS-986 as agonist; IL-6 and IFNα readout); conditions: human PBMCs, TLR7 agonist GS-986 at 400 nM, 6 hours, antagonist potency; read-out: TLR-7 EC50
Procedure: Human peripheral blood mononuclear cells (PBMCs) consist of lymphocytes, monocytes and dendritic cells that express TLR7, TLR8 and TLR9. These cells respond to TLR7, TLR8 and TLR9 ligand stimulation and produce cytokines and chemokines in vitro and in vivo. Human PBMCs are therefore suitable to be used in a cell-based assay to assess the in vitro potency of a TLR 7, 8, and/or 9 antagonist.
After counting, the cell density was adjusted to 2 million cells/ml and incubated for 1 hour at 37° C., 5% CO2 for recovery. Following the recovery, the cells were plated by adding 50 μl per well (100,000 cells) to 384-well cell culture plates (Greiner) containing 250 nl of test antagonists in 100% DMSO per well, in a 10 points dose response in quadruplicates. PBMCs were incubated in the presence of test antagonists for one hour at 37° C., 5% CO2 before being stimulated with a TLR7 or TLR9agonist. […] PBMCs were incubated in the presence of the test antagonist and the TLR7 (or TLR9) agonist for an additional 6 hours at 37° C., 5% CO2. At the end of the incubation, the cell culture plates were centrifuged at 500 g for 5 min, and the cell culture supernatant was collected. The level of cytokines (IL-6 and IFNα) in the supernatant was measured by electrochemiluminescence immunoassays (Mesoscale Discovery) following manufacturer's recommended protocols.

TLR8 = TLR8 (Homo sapiens (Human), UniProt Q9NR97); assay: TLR8 human peripheral blood mononuclear cell (PBMC) cell-based assay (Compound A as agonist; TNFα and IL12p40 readout); conditions: human PBMCs, TLR8 agonist Compound A at 800 nM, 6 hours, antagonist potency; read-out: TLR-8 EC50
Sequence of TLR8 (Q9NR97 27-1041): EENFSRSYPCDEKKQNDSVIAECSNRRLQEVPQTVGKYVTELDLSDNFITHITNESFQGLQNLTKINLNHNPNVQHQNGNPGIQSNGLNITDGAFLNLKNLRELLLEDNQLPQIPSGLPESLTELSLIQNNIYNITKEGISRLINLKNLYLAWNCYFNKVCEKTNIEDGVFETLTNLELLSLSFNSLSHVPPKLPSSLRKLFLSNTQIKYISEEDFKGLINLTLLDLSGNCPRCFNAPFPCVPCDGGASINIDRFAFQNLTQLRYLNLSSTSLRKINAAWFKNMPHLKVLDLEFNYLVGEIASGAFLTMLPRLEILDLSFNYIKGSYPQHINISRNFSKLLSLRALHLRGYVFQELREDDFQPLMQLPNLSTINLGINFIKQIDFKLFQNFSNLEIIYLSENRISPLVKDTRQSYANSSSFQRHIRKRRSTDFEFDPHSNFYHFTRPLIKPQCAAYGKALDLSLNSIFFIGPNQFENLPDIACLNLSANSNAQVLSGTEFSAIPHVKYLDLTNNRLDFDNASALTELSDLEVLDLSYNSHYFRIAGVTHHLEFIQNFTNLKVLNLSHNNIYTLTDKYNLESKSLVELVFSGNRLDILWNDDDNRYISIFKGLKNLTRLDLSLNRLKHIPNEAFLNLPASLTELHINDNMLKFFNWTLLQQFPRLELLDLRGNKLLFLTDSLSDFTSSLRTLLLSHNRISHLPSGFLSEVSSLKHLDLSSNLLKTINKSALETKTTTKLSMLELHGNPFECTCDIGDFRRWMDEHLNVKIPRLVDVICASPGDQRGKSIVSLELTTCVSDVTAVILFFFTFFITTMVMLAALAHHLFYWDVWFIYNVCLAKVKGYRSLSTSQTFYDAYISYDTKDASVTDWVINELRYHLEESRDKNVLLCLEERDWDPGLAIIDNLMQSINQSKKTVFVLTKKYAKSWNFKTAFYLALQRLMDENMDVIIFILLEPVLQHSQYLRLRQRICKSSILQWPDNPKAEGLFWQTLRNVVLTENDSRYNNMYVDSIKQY
Procedure: After counting, the cell density was adjusted to 2 million cells/ml and incubated for 1 hour at 37° C., 5% CO2 for recovery. Following the recovery, the cells were plated by adding 50 μl per well (100,000 cells) to 384-well cell culture plates (Greiner) containing 250 nl of test antagonists in 100% DMSO per well, in a 10 points dose response in quadruplicates. PBMCs were incubated in the presence of antagonists for one hour at 37° C., 5% CO2 before being stimulated with TLR8 agonist. […] PBMCs were incubated in the presence of antagonist and the TLR8 agonist for an additional 6 hours at 37° C., 5% CO2. At the end of the incubation, the cell culture plates were centrifuged at 500 g for 5 min, and the cell culture supernatant was collected. The level of cytokines (TNFα and IL12p40) in the supernatant was measured by electrochemiluminescence immunoassays (Mesoscale Discovery) following manufacturer's recommended protocols.

Sequence of TLR7 (Q9NYK1 27-1049): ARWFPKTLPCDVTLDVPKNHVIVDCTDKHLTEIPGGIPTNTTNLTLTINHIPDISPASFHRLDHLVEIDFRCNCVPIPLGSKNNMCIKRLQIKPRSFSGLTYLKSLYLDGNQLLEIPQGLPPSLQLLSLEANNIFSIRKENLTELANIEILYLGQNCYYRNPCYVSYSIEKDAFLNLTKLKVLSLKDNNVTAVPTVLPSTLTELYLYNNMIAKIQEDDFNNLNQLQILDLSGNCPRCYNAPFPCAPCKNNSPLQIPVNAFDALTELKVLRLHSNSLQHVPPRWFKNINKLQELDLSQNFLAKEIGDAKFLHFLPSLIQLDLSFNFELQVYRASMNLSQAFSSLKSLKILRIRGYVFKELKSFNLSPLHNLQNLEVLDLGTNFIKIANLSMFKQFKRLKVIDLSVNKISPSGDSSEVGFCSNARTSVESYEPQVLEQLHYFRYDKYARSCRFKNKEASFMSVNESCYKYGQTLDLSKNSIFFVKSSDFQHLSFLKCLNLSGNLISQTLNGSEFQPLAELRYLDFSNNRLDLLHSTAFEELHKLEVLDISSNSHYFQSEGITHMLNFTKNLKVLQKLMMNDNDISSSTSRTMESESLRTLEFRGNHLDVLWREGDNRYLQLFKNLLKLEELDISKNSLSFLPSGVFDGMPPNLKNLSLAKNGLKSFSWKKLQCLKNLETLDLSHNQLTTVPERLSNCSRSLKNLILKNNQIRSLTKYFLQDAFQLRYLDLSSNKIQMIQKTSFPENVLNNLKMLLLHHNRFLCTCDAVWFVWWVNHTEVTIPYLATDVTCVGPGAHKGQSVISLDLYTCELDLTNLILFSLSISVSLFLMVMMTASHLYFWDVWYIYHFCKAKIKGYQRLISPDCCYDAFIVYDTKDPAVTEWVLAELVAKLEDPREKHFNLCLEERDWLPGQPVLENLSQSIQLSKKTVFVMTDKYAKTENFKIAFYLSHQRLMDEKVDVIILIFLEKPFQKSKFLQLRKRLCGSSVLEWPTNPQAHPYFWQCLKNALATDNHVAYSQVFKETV

| SMILES | EC50 (TLR7) | EC50 (TLR8) |
| --- | --- | --- |
| Cc1c(-c2ccc(N3CCNCC3)cc2)sc2[nH]c(-c3cc(C)c4ncnn4c3)c(C(C)C)c12 [Example 23] | 0.56 nM | 16.1 nM |
| Cc1c([C@@H]2C[C@H]3CC[C@@H]2CN3CC(N)=O)sc2[nH]c(-c3cc(C)c4ncnn4c3)c(C(C)C)c12 (single isomer, unassigned) [Example 191] | < 0.05 nM | 8.77 nM |
| Cc1c(-c2[nH]c3sc([C@@H]4C[C@@H]5C[C@H]4CN5CC(=O)O)c(C)c3c2C(C)C)cn2ncnc2c1C [Example 264, 2-((1S,4R,5R)-5-(5-(7,8-dimethyl-[1,2,4]triazolo[1,5-a]pyridin-6-yl)-4 isopropyl-3-methyl-6H-thieno[2,3-b]pyrrol-2-yl)-2-azabicyclo[2.2.1]heptan-2-yl)acetic acid] | 2.52 nM | 13.7 nM |
| Cc1c(-c2[nH]c3sc(C45CCNCC4C5)c(C)c3c2C(C)C)cn2ncnc2c1C (stereo not shown) [Example 77, 2-(3-azabicyclo[4.1.0]heptan-6-yl)-5-(7,8-dimethyl-[1,2,4]triazolo[1,5-a]pyridin-6-yl)-4-isopropyl-3-methyl-6H-thieno[2,3-b]pyrrole] | 0.09 nM | 2.89 nM |
| Cc1c(-c2[nH]c3sc([C@@H]4C[C@@H]5C[C@H]4CN5C4CCS(=O)(=O)CC4)c(C)c3c2C(C)C)cn2ncnc2c1C [Example 168] | 0.74 nM | 0.96 nM |
| Cc1c(C2CCNCC2)sc2[nH]c(-c3cc(C)c4nnnn4c3)c(C(C)C)c12 [Example 251] | 0.13 nM | 8.16 nM |
| Cc1c(-c2[nH]c3sc(C4CCN(C(=O)[C@H]5C[C@@]6(CN(C)CCO6)C5)CC4)c(C)c3c2C(C)C)cn2ncnc2c1C [Example 296, [4-[5-(7,8-dimethyl-[1,2,4]triazolo[1,5-a]pyridin-6-yl)-4-isopropyl-3-methyl-6H-thieno[2,3-b]pyrrol-2-yl]-1-piperidyl]-(8-methyl-5-oxa-8-azaspiro[3.5]nonan-2-yl)methanone] | < 0.05 nM | 8.94 nM |
| Cc1c(-c2[nH]c3sc([C@@H]4C[C@@H]5C[C@H]4CN5Cc4nnc[nH]4)c(C)c3c2C(C)C)cn2ncnc2c1C [Example 176] | 0.08 nM | 0.12 nM |
| Cc1c(-c2[nH]c3sc(C4CCN(C(=O)[C@H]5CO[C@H](C)CN5)CC4)c(C)c3c2C(C)C)cn2ncnc2c1C [Example 279, [4-[5-(7,8-dimethyl-[1,2,4]triazolo[1,5-a]pyridin-6-yl)-4-isopropyl-3-methyl-6H-thieno[2,3-b]pyrrol-2-yl]-1-piperidyl]-[(3R,6R)-6-methylmorpholin-3-yl]methanone] | 0.54 nM | 13.6 nM |
| Cc1c(-c2[nH]c3sc(C4CC(C(=O)N5CCNCC5)C4)c(C)c3c2C(C)C)cn2ncnc2c1C (single isomer, unassigned) [Example 238, (3-(5-(7,8-dimethyl-[1,2,4]triazolo[1,5-a]pyridin-6-yl)-4-isopropyl-3-methyl-6H-thieno[2,3-b]pyrrol-2-yl)cyclobutyl)(piperazin-1-yl)methanone] | 0.39 nM | 1.44 nM |
| Cc1c(-c2[nH]c3sc(C4C[C@@H]5C[C@H]4CC5N4CC5(C4)CS(=O)(=O)C5)c(C)c3c2C(C)C)cn2ncnc2c1C (stereo partly shown) [Example 254] | 0.38 nM | 3.64 nM |
| CCNC(=O)CN1C[C@@H]2C[C@H]1C[C@H]2c1sc2[nH]c(-c3cn4ncnc4c(C)c3C)c(C(C)C)c2c1C [Example 186] | 0.66 nM | 0.45 nM |
| Cc1c(-c2[nH]c3sc(C4CCN(C5CCNC5=O)CC4)c(C)c3c2C(C)C)cn2ncnc2c1C (stereo not shown) [Example 287, 3-[4-[5-(7,8-dimethyl-[1,2,4]triazolo[1,5-a]pyridin-6-yl)-4-isopropyl-3-methyl-6H-thieno[2,3-b]pyrrol-2-yl]-1-piperidyl]pyrrolidin-2-one] | 0.43 nM | 12.4 nM |
| Cc1c(-c2[nH]c3sc(C4CC5(CNCCO5)C4)c(C)c3c2C(C)C)cn2ncnc2c1C (single isomer, unassigned) [Example 89, 2-(5-(7,8-dimethyl-[1,2,4]triazolo[1,5-a]pyridin-6-yl)-4-isopropyl-3-methyl-6H-thieno[2,3-b]pyrrol-2-yl)-5-oxa-8-azaspiro[3.5]nonane] | 0.2 nM | – |

Now from value to compound:

| EC50 (TLR7) | EC50 (TLR8) | SMILES |
| --- | --- | --- |
| 0.09 nM | 6.21 nM | Cc1c(-c2[nH]c3sc(C4CCN(C(=O)[C@H]5CNCCO5)CC4)c(C)c3c2C(C)C)cn2ncnc2c1C [Example 110] |
| 1.24 nM | 3.68 nM | Cc1c(-c2[nH]c3sc(-c4cnc(C5CCNCC5)nc4)c(C)c3c2C(C)C)cn2ncnc2c1C [Example 224] |
| 0.26 nM | 0.99 nM | Cc1c(-c2[nH]c3sc(C4CC(C(=O)N5CCNCC5)C4)c(C)c3c2C(C)C)cn2ncnc2c1C (stereo not shown) [Example 151, (3-(5-(7,8-dimethyl-[1,2,4]triazolo[1,5-a]pyridin-6-yl)-4-isopropyl-3-methyl-6H-thieno[2,3-b]pyrrol-2-yl)cyclobutyl)(piperazin-1-yl)methanone] |
| 2.68 nM | 6.79 nM | Cc1c(-c2[nH]c3sc(C4CC5(CNCCO5)C4)c(C)c3c2C(C)C)cn2ncnc2c1C (single isomer, unassigned) [Example 90, 2-(5-(7,8-dimethyl-[1,2,4]triazolo[1,5-a]pyridin-6-yl)-4-isopropyl-3-methyl-6H-thieno[2,3-b]pyrrol-2-yl)-5-oxa-8-azaspiro[3.5]nonane] |
| 0.72 nM | 9.53 nM | Cc1c(-c2[nH]c3sc([C@@H]4C[C@@H]5C[C@H]4CN5C(=O)[C@@H]4C[C@H](F)CN4)c(C)c3c2C(C)C)cn2ncnc2c1C [Example 149] |
| 0.47 nM | 0.15 nM | Cc1c(-c2[nH]c3sc([C@@H]4C[C@@H]5C[C@H]4CN5CC(=O)NCCO)c(C)c3c2C(C)C)cn2ncnc2c1C [Example 267] |
| 1.94 nM | 21.8 nM | Cc1c(C2CCN(CC(N)=O)CC2)sc2[nH]c(-c3cc(C)c4nnnn4c3)c(C(C)C)c12 [Example 236] |
| 0.24 nM | 1.74 nM | Cc1cc(-c2[nH]c3sc([C@H]4C[C@@]5(CCN(CC(N)=O)C5)C4)c(C)c3c2C(C)C)cn2ncnc12 [Example 126] |
| 0.83 nM | 18.8 nM | Cc1c(C2CCN(CC(N)=O)CC2)sc2[nH]c(C3=NC(C)c4ncccc43)c(C(C)C)c12 (stereo not shown) [Example 232] |
| 2.13 nM | 1.19 nM | COCCNC(=O)CN1C[C@@H]2C[C@H]1C[C@H]2c1sc2[nH]c(-c3cn4ncnc4c(C)c3C)c(C(C)C)c2c1C [Example 272] |
| < 0.05 nM | 0.24 nM | Cc1c(-c2[nH]c3sc(C4C[C@@H]5C[C@H]4CN5CC(=O)N4CCC4)c(C)c3c2C(C)C)cn2ncnc2c1C (stereo partly shown) [Example 268] |
| 3.12 nM | 9.48 nM | Cc1c(C2CN(CC(N)=O)C2)sc2[nH]c(-c3cc(C)c4ncnn4c3)c(C(C)C)c12 [Example 64] |
| 0.09 nM | 8.94 nM | COc1cc(-c2[nH]c3sc(C4CCNCC4)c(C)c3c2C(C)C)cn2ncnc12 [Example 246, 4-isopropyl-5-(8-methoxy-[1,2,4]triazolo[1,5-a]pyridin-6-yl)-3-methyl-2-(piperidin-4-yl)-6H-thieno[2,3-b]pyrrole] |
| 0.54 nM | 0.29 nM | Cc1c(-c2[nH]c3sc([C@@H]4C[C@@H]5C[C@H]4CN5CC(N)=O)c(C)c3c2C(C)C)cn2nc(Cl)nc2c1C [Example 139] |
| 0.17 nM | 3.33 nM | Cc1c(-c2[nH]c3sc(C4CC(n5cc(C6COCCN6)nn5)C4)c(C)c3c2C(C)C)cn2ncnc2c1C (single isomer, unassigned) [Example 245, 3-(1-(3-(5-(7,8-dimethyl-[1,2,4]triazolo[1,5-a]pyridin-6-yl)-4-isopropyl-3-methyl-6H-thieno[2,3-b]pyrrol-2-yl)cyclobutyl)-1H-1,2,3-triazol-4-yl)morpholine] |
| 0.19 nM | 9.09 nM | Cc1c(C2CCC3(CNC3)C2)sc2[nH]c(-c3cc(C)c4ncnn4c3)c(C(C)C)c12 (stereo not shown) [Example 61] |
| 1.94 nM | 2.67 nM | Cc1c(-c2[nH]c3sc(C4CCN(C(=O)[C@@H]5COCCN5)CC4)c(C)c3c2C(C)C)cn2ncnc2c1C [Example 92] |
| 0.21 nM | 1.52 nM | Cc1c(C2CCNC2)sc2[nH]c(-c3cc(C)c4ncnn4c3)c(C(C)C)c12 (stereo not shown) [Example 127] |
| 0.52 nM | 16.6 nM | Cc1c(C2CCN(C(=O)[C@@H]3C[C@@H](F)CN3)CC2)sc2[nH]c(-c3cc(C)c4ncnn4c3)c(C(C)C)c12 [Example 117] |
| 0.15 nM | 1.06 nM | Cc1c(-c2[nH]c3sc([C@@H]4C[C@@H]5C[C@H]4CN5CC4(F)COC4)c(C)c3c2C(C)C)cn2ncnc2c1C [Example 173] |

Source: US11661431B2, “Thienopyrrole compounds” (Gilead Sciences, Inc., priority 2021, dated 2023)
